In ChEMBL document CHEMBL3885881, “DrugMatrix”:

Organism: Rattus norvegicus
Assay: DrugMatrix - Regimen: Daily Repeat
Assay type: toxicity, organism-based, Sprague-Dawley
Design: regimen Daily Repeat, gender Male, age 6-8 weeks
Details: in vivo, sc, route subcutaneous, […]; for ABSOLUTE BASOPHIL / ABSOLUTE EOSINOPHIL / ABSOLUTE LYMPHOCYTE / ABSOLUTE MONOCYTE / ABSOLUTE SEGMENTED NEUTROPHIL / BASOPHIL / EOSINOPHIL / ERYTHROCYTE COUNT / HEMATOCRIT / HEMOGLOBIN / LEUKOCYTE COUNT / LYMPHOCYTE / MEAN CORPUSCULAR HEMOGLOBIN / MEAN CORPUSCULAR HEMOGLOBIN CONCENTRATION / MEAN CORPUSCULAR VOLUME / MONOCYTE / NEUTROPHIL / NUCLEATED RED BLOOD CELLS / PLATELET COUNT: tissue Blood; for ALANINE AMINOTRANSFERASE / ALKALINE PHOSPHATASE / ASPARTATE AMINOTRANSFERASE / BLOOD UREA NITROGEN / CARBON DIOXIDE / CHLORIDE / CHOLESTEROL / CREATINE PHOSPHOKINASE / CREATININE / GLUCOSE / LACTATE DEHYDROGENASE / LIPASE / PHOSPHORUS / POTASSIUM / SODIUM / TOTAL BILIRUBIN / TOTAL PROTEIN / URIC ACID: tissue Plasma
[1] = 17 mg/kg, 120 h, dose level Low, time 5 day
[2] = 800 mg/kg, 72 h, dose level High, time 3 day
[3] = 800 mg/kg, 120 h, dose level High, time 5 day

With `CC(C)Cn1cnc2c(N)nc3ccccc3c21` [IMIQUIMOD] the “ABSOLUTE BASOPHIL” value [1] was 0 CELLS/uL, the “ABSOLUTE EOSINOPHIL” value [1] was 29.67 CELLS/uL and the “ABSOLUTE LYMPHOCYTE” value [1] was 8944.33 CELLS/uL. For the same compound, the “ABSOLUTE MONOCYTE” value [1] was 43 CELLS/uL, the “ABSOLUTE SEGMENTED NEUTROPHIL” value [1] was 1349.67 CELLS/uL and the BASOPHIL [1] was 0%. For the same compound, the EOSINOPHIL [1] was 0.33%, the “ERYTHROCYTE COUNT” value [1] was 5.45 x10E6/uL and the HEMATOCRIT [1] was 33.33%. The HEMOGLOBIN [1] was 12.27 G/DL, the “LEUKOCYTE COUNT” value [1] was 10.37 x10E3/uL and the LYMPHOCYTE [1] was 85.67%. The “MEAN CORPUSCULAR HEMOGLOBIN” value [1] was 22.53 pg, the “MEAN CORPUSCULAR HEMOGLOBIN CONCENTRATION” value [1] was 36.77 G/DL and the “MEAN CORPUSCULAR VOLUME” value [1] was 61.17 fL. The MONOCYTE [1] was 0.33%, the NEUTROPHIL [1] was 13.67% and the “NUCLEATED RED BLOOD CELLS” value [1] was 0.67 /100WBC. The “PLATELET COUNT” value [1] was 1497.33 x10E3/uL, the “ALANINE AMINOTRANSFERASE” value [1] was 53 u/L and the “ALKALINE PHOSPHATASE” value [1] was 401.33 u/L. The “ASPARTATE AMINOTRANSFERASE” value [1] was 93.33 u/L, the “BLOOD UREA NITROGEN” value [1] was 17 mg/dL and the “CARBON DIOXIDE” value [1] was 23.67 mmol/L. For the same compound, the CHLORIDE [1] was 108.67 MEQ/L, the CHOLESTEROL [1] was 52.33 mg/dL and the “CREATINE PHOSPHOKINASE” value [1] was 410.67 u/L. The CREATININE [1] was 0.19 mg/dL, the GLUCOSE [1] was 174.67 mg/dL and the “LACTATE DEHYDROGENASE” value [1] was 110 u/L. The LIPASE [1] was 7 u/L, the PHOSPHORUS [1] was 13.1 mg/dL and the POTASSIUM [1] was 6.07 MEQ/L. For the same compound, the SODIUM [1] was 146.2 MEQ/L, the “TOTAL BILIRUBIN” value [1] was 0.2 mg/dL and the “TOTAL PROTEIN” value [1] was 5.23 G/DL. For the same compound, the “URIC ACID” value [1] was 1.73 mg/dL, the “ABSOLUTE BASOPHIL” value [2] was 0 CELLS/uL and the “ABSOLUTE EOSINOPHIL” value [2] was 67.67 CELLS/uL. The “ABSOLUTE LYMPHOCYTE” value [2] was 7240 CELLS/uL, the “ABSOLUTE MONOCYTE” value [2] was 88 CELLS/uL and the “ABSOLUTE SEGMENTED NEUTROPHIL” value [2] was 637.67 CELLS/uL. The BASOPHIL [2] was 0%, the EOSINOPHIL [2] was 1% and the “ERYTHROCYTE COUNT” value [2] was 5.31 x10E6/uL. The HEMATOCRIT [2] was 33.3%, the HEMOGLOBIN [2] was 12.5 G/DL and the “LEUKOCYTE COUNT” value [2] was 8.03 x10E3/uL. For the same compound, the LYMPHOCYTE [2] was 90%, the “MEAN CORPUSCULAR HEMOGLOBIN” value [2] was 23.57 pg and the “MEAN CORPUSCULAR HEMOGLOBIN CONCENTRATION” value [2] was 37.57 G/DL. The “MEAN CORPUSCULAR VOLUME” value [2] was 62.73 fL, the MONOCYTE [2] was 1% and the NEUTROPHIL [2] was 8%. For the same compound, the “NUCLEATED RED BLOOD CELLS” value [2] was 0 /100WBC, the “PLATELET COUNT” value [2] was 828 x10E3/uL and the “ALANINE AMINOTRANSFERASE” value [2] was 47 u/L. The “ALKALINE PHOSPHATASE” value [2] was 345.33 u/L, the “ASPARTATE AMINOTRANSFERASE” value [2] was 91.67 u/L and the “BLOOD UREA NITROGEN” value [2] was 15.67 mg/dL. For the same compound, the “CARBON DIOXIDE” value [2] was 28.67 mmol/L, the CHLORIDE [2] was 107 MEQ/L and the CHOLESTEROL [2] was 65 mg/dL. For the same compound, the “CREATINE PHOSPHOKINASE” value [2] was 419.33 u/L, the CREATININE [2] was 0.27 mg/dL and the GLUCOSE [2] was 147 mg/dL. The “LACTATE DEHYDROGENASE” value [2] was 130.67 u/L, the LIPASE [2] was 7.5 u/L and the PHOSPHORUS [2] was 10.23 mg/dL. For the same compound, the POTASSIUM [2] was 5.87 MEQ/L, the SODIUM [2] was 147.45 MEQ/L and the “TOTAL BILIRUBIN” value [2] was 0.13 mg/dL. The “TOTAL PROTEIN” value [2] was 5.17 G/DL, the “URIC ACID” value [2] was 0.73 mg/dL and the “ABSOLUTE BASOPHIL” value [3] was 0 CELLS/uL. For the same compound, the “ABSOLUTE EOSINOPHIL” value [3] was 301.33 CELLS/uL, the “ABSOLUTE LYMPHOCYTE” value [3] was 14418.33 CELLS/uL and the “ABSOLUTE MONOCYTE” value [3] was 118 CELLS/uL. The “ABSOLUTE SEGMENTED NEUTROPHIL” value [3] was 5662.33 CELLS/uL, the BASOPHIL [3] was 0% and the EOSINOPHIL [3] was 1.33%. The “ERYTHROCYTE COUNT” value [3] was 4.85 x10E6/uL, the HEMATOCRIT [3] was 30.53% and the HEMOGLOBIN [3] was 12.07 G/DL. The “LEUKOCYTE COUNT” value [3] was 20.5 x10E3/uL, the LYMPHOCYTE [3] was 70.33% and the “MEAN CORPUSCULAR HEMOGLOBIN” value [3] was 24.9 pg. For the same compound, the “MEAN CORPUSCULAR HEMOGLOBIN CONCENTRATION” value [3] was 39.5 G/DL, the “MEAN CORPUSCULAR VOLUME” value [3] was 62.93 fL and the MONOCYTE [3] was 0.67%. The NEUTROPHIL [3] was 27.67%, the “NUCLEATED RED BLOOD CELLS” value [3] was 0.33 /100WBC and the “PLATELET COUNT” value [3] was 1467 x10E3/uL. For the same compound, the “ALANINE AMINOTRANSFERASE” value [3] was 44 u/L, the “ALKALINE PHOSPHATASE” value [3] was 267.67 u/L and the “ASPARTATE AMINOTRANSFERASE” value [3] was 86 u/L. For the same compound, the “BLOOD UREA NITROGEN” value [3] was 18 mg/dL, the “CARBON DIOXIDE” value [3] was 25 mmol/L and the CHLORIDE [3] was 103.67 MEQ/L. For the same compound, the CHOLESTEROL [3] was 58 mg/dL, the “CREATINE PHOSPHOKINASE” value [3] was 257.33 u/L and the CREATININE [3] was 0.29 mg/dL. The GLUCOSE [3] was 184.67 mg/dL, the “LACTATE DEHYDROGENASE” value [3] was 248 u/L and the LIPASE [3] was 7.67 u/L. It also gave a PHOSPHORUS [3] of 11.8 mg/dL, a POTASSIUM [3] of 5.8 MEQ/L and an SODIUM [3] of 142.87 MEQ/L. The “TOTAL BILIRUBIN” value [3] was 0.17 mg/dL, the “TOTAL PROTEIN” value [3] was 5.3 G/DL and the “URIC ACID” value [3] was 1.6 mg/dL.
